The experiment addresses T1, RIPK2 (Homo sapiens, UniProt O43353).
T1 construct: Full length FLAG His tagged RIPK2 was purified from a Baculovirus expression system; FLAG (N); 6His (N); made in house; host or cells: Spodoptera frugiperda (Sf9) insect cells, baculovirus
Briefly: Fluorescent polarization based binding assay at the ATP binding pocket of RIPK2. Conditions: full length FLAG His tagged RIPK2; competition with fluorescently labeled ATP competitive ligand (5 nM); mean of a minimum of 2 experiments; read-out: mean pIC50 (converted). The source says: A fluorescent polarization based binding assay was developed to quantitate interaction of novel test compounds at the ATP binding pocket of RIPK2, by competition with a fluorescently labeled ATP competitive ligand. Full length FLAG His tagged RIPK2 was purified from a Baculovirus expression system and was used at a final assay concentration of twice the KDapparent. A fluorescent labeled ligand (5-({[2-({[3-({4-[(5-hydroxy-2-methylphenyl)amino]-2-pyrimidinyl}amino)phenyl]carbonyl}amino)ethyl]amino}carbonyl)-2-(6-hydroxy-3-oxo-3H-xanthen-9-yl)benzoic acid, prepared as described below) was used at a final assay concentration of 5 nM. Both the enzyme and ligand were prepared in solutions in 50 mM HEPES pH7.5, 150 mM NaCl, 10 mM MgCl2, 1 mM DTT, and 1 mM CHAPS. Test compounds were prepared in 100% DMSO and 100 nL was dispensed to individual wells of a multiwell plate. Next, 5 ul RIPK2 was added to the test compounds at twice the final assay concentration, and incubated at room temperature for 10 minutes. […] Finally, samples were read on an instrument capable of measuring fluorescent polarization. Test compound inhibition was expressed as percent (%) inhibition of internal assay controls.
For concentration response experiments, normalized data were fit and pIC50s determined using conventional techniques. […]

Molecules are shown by their SMILES.

T1 sequence (O43353 whole entry): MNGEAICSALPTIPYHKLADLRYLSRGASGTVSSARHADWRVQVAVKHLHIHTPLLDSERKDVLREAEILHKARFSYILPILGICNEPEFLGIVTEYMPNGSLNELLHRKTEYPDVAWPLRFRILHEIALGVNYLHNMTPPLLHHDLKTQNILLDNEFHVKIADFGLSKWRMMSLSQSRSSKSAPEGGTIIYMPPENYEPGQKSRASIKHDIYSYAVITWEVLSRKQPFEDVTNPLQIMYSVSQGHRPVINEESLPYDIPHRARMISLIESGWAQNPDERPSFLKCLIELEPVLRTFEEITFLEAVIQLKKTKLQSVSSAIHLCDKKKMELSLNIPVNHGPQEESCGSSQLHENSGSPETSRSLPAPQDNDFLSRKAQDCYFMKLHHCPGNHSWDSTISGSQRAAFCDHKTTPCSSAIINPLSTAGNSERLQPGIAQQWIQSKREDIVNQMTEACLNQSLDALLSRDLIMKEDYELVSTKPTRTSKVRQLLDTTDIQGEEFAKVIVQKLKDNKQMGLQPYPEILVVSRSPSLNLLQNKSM

Consider `COc1ccc(-n2nc(C(F)(F)F)cc2Nc2ccnc(Nc3ccc(OC)c(OC)c3)n2)cc1` [Example 21, N^2-[3,4-bis(methyloxy)phenyl]-N^4-[1-[4-(methyloxy)phenyl]-3-(trifluoromethyl)-1H-pyrazol-5-yl]-2,4-pyrimidinediamine], for which the IC50 was 251 nM.

As to `COc1cc(Nc2nccc(Nc3[nH]nc(C)c3C)n2)cc(OC)c1OC` [Example 1, N^4-(3,4-Dimethyl-1H-pyrazol-5-yl)-N^2-[3,4,5-tris(methyloxy)phenyl]-2,4-pyrimidinediamine], the IC50 is 10 nM.

The values are drawn from US20130023534A1, “PYRAZOLYL-PYRIMIDINES AS KINASE INHIBITORS” (priority 2010, published 2013).
